Test results published in the supplement of paper PMC11061612.

Key:
Experiment in all cases: combination Emax (second highest fraction inhibited in the dose matrix, 72 h); higher = more inhibition; extreme values may be limits of the assay
769-P (Kidney Carcinoma) = tested on: 769-P (Kidney Carcinoma)
Method in brief: (§1)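 After 24 hours at 37°C and 5% CO2 in 1536-well plates, cells in DMEM/F12 or RPMI plus 10% FBS received two-drug dose matrices for 72 hours. Viability came from CellTiter-Glo 2.0 luminescence and was scaled as inhibition, anchored at 0 by vehicle wells and at 1 by blank wells. Combination Emax is taken as the second-highest inhibition in the matrix, and Bliss excess as the observed combination effect less EA + EB − EA·EB, with EA and EB the single-agent effects.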

A101D (Melanoma) = tested on: A101D (Melanoma)
Method in brief: as §1

AU565 (Breast Carcinoma) = tested on: AU565 (Breast Carcinoma)
Method in brief: as §1

[1] = tested on: CA46 (Burkitt's Lymphoma)
Method in brief: as §1

[2] = tested on: CAL-27 (Oral Cavity Carcinoma)
Method in brief: as §1

[3] = tested on: DMS-53 (Small Cell Lung Carcinoma)
Method in brief: as §1

EW-16 (Ewing's Sarcoma) = tested on: EW-16 (Ewing's Sarcoma)
Method in brief: as §1

[4] = tested on: HCC1395 (Breast Carcinoma)
Method in brief: as §1

[5] = tested on: JVM-2 (B-Cell Non-Hodgkin's Lymphoma)
Method in brief: as §1

KP-N-YN (Neuroblastoma) = tested on: KP-N-YN (Neuroblastoma)
Method in brief: as §1

[6] = tested on: KYSE-140 (Esophageal Squamous Cell Carcinoma)
Method in brief: as §1

[7] = tested on: KYSE-220 (Esophageal Squamous Cell Carcinoma)
Method in brief: as §1

[8] = tested on: LU-165 (Small Cell Lung Carcinoma)
Method in brief: as §1

[9] = tested on: NCI-H1703 (Squamous Cell Lung Carcinoma)
Method in brief: as §1

[10] = tested on: NCI-H2228 (Lung Adenocarcinoma)
Method in brief: as §1

[11] = tested on: NCI-H716 (Colorectal Carcinoma)
Method in brief: as §1

PEO1 (Ovarian Carcinoma) = tested on: PEO1 (Ovarian Carcinoma)
Method in brief: as §1

[12] = tested on: SK-HEP-1 (Hepatocellular Carcinoma)
Method in brief: as §1

[13] = tested on: SW620 (Colorectal Carcinoma)
Method in brief: as §1

WM1552C (Melanoma) = tested on: WM1552C (Melanoma)
Method in brief: as §1

Compound	combination Emax (769-P (Kidney Carcinoma))	combination Emax (A101D (Melanoma))	combination Emax (AU565 (Breast Carcinoma))	combination Emax [1]	combination Emax [2]	combination Emax [3]	combination Emax (EW-16 (Ewing's Sarcoma))	combination Emax [4]	combination Emax [5]	combination Emax (KP-N-YN (Neuroblastoma))	combination Emax [6]	combination Emax [7]	combination Emax [8]	combination Emax [9]	combination Emax [10]	combination Emax [11]	combination Emax (PEO1 (Ovarian Carcinoma))	combination Emax [12]	combination Emax [13]	combination Emax (WM1552C (Melanoma))
COc1nnc2ccc(N3CCC(c4ccc(OCCN5CCN(C)C(=O)[C@H]5C)cc4)CC3)nn12 [AZD5153] + C[C@@H]1COCCN1C2=NC(=NC(=C2)C3(CC3)[S@](=N)(=O)C)C4=C5C=CNC5=NC=C4 [AZD6738] (first compound max 1 µM, 7x7, partner max 10 µM)	0.977	0.805	0.502	0.754	0.659	0.58	0.747	0.671	0.825	0.955	0.821	0.863	0.685	0.973	0.594	0.702	0.748	0.406	0.784	0.546
COc1nnc2ccc(N3CCC(c4ccc(OCCN5CCN(C)C(=O)[C@H]5C)cc4)CC3)nn12 [AZD5153] + Cn1cnc2c(F)c(Nc3ccc(Br)cc3Cl)c(C(=O)NOCCO)cc21 [Selumetinib] (first compound max 1 µM, 7x7, partner max 10 µM)	0.659	0.872	0.328	0.633	0.795	0.426	0.506	0.305	0.702	0.369	0.557	0.808	0.357	0.626	0.428	0.879	0.483	0.234	0.76	0.514
COc1cccc(OCCCN)c1-c1cc(Nc2cnc(C#N)cn2)n[nH]1 [Prexasertib] + O=C(c1cc(Cc2n[nH]c(=O)c3ccccc23)ccc1F)N1CCN(C(=O)C2CC2)CC1 [Olaparib] (first compound max 1 µM, 7x7, partner max 10 µM)	0.751	0.788	0.735	0.464	0.78	0.314	0.793	0.88	0.946	0.845	0.826	0.947	0.424	0.978	0.726	0.616	0.388	0.338	0.711	0.711
CCN(CCO)CCCOc1ccc2c(Nc3cc(CC(=O)Nc4cccc(F)c4)[nH]n3)ncnc2c1 [AZD2811] + C[C@@H]1COCCN1C2=NC(=NC(=C2)C3(CC3)[S@](=N)(=O)C)C4=C5C=CNC5=NC=C4 [AZD6738] (first compound max 1 µM, 7x7, partner max 10 µM)	0.85	0.682	0.362	0.482	0.515	0.144	0.758	0.785	0.875	0.957	0.92	0.884	0.38	0.834	0.517	0.515	0.553	0.42	0.417	0.642
CC(=O)c1c(C)c2cnc(Nc3ccc(N4CCNCC4)cn3)nc2n(C2CCCC2)c1=O [Palbociclib] + Cn1cnc2c(F)c(Nc3ccc(Br)cc3Cl)c(C(=O)NOCCO)cc21 [Selumetinib] (first compound max 10 µM, 7x7, partner max 10 µM)	0.809	0.588	0.277	0.345	0.627	0.212	0.311	0.0651	0.774	0.318	0.188	0.66	0.0618	0.584	0.335	0.539	0.295	0.372	0.72	0.47
CS(=O)(=O)CCNCc1ccc(-c2ccc3ncnc(Nc4ccc(OCc5cccc(F)c5)c(Cl)c4)c3c2)o1 [Lapatinib] + C[C@@H](Oc1cc(-c2cnn(C3CCNCC3)c2)cnc1N)c1c(Cl)ccc(F)c1Cl [Crizotinib] (first compound max 10 µM, 7x7, partner max 10 µM)	0.966	0.971	0.959	0.861	0.958	0.25	0.969	0.906	0.918	0.755	0.881	0.994	0.441	0.746	0.769	0.837	0.718	0.255	0.921	0.921
COc1nnc2ccc(N3CCC(c4ccc(OCCN5CCN(C)C(=O)[C@H]5C)cc4)CC3)nn12 [AZD5153] + CC1(C)CCC(CN2CCN(c3ccc(C(=O)NS(=O)(=O)c4ccc(NCC5CCOCC5)c([N+](=O)[O-])c4)c(Oc4cnc5[nH]ccc5c4)c3)CC2)=C(c2ccc(Cl)cc2)C1 [Venetoclax] (first compound max 1 µM, 7x7, partner max 1 µM)	0.701	0.67	0.311	0.658	0.504	0.887	0.464	0.411	0.739	0.673	0.603	0.617	0.468	0.655	0.288	0.615	0.368	0.485	0.431	0.397
NC1(C(=O)N[C@@H](CCO)c2ccc(Cl)cc2)CCN(c2ncnc3[nH]ccc23)CC1 [Capivasertib] + COc1nnc2ccc(N3CCC(c4ccc(OCCN5CCN(C)C(=O)[C@H]5C)cc4)CC3)nn12 [AZD5153] (first compound max 10 µM, 7x7, partner max 1 µM)	0.729	0.66	0.664	0.644	0.833	0.164	0.515	0.395	0.79	0.478	0.857	0.838	0.712	0.733	0.52	0.616	0.453	0.497	0.427	0.555
Cc1c2c(nn1C)CSCc1cc(n(C)n1)CSc1cc(c3ccccc3c1)OCCCc1c(C(=O)O)n(C)c3c-2c(Cl)ccc13 [AZD5991] + Cn1cnc2c(F)c(Nc3ccc(Br)cc3Cl)c(C(=O)NOCCO)cc21 [Selumetinib] (first compound max 1 µM, 7x7, partner max 3 µM)	0.227	1	1	0.0912	0.988	0.618	0.258	0.56	0.646	0.204	0.439	0.304	0.161	0.856	0.249	0.515	0.25	0.311	0.643	0.884
CC1(C)CCC(CN2CCN(c3ccc(C(=O)NS(=O)(=O)c4ccc(NCC5CCOCC5)c([N+](=O)[O-])c4)c(Oc4cnc5[nH]ccc5c4)c3)CC2)=C(c2ccc(Cl)cc2)C1 [Venetoclax] + C1CN(CCC1(C(=O)N[C@@H](CCO)C2=CC=C(C=C2)Cl)N)C3=NC=NC4=C3C=CN4 [Capivasertib] (first compound max 1 µM, 7x7, partner max 3 µM)	0.241	0.283	0.46	0.112	0.261	0.361	0.236	0.662	0.661	0.573	0.669	0.223	0.269	0.384	0.405	0.287	0.19	0.168	0.151	0.469
NC1(C(=O)N[C@@H](CCO)c2ccc(Cl)cc2)CCN(c2ncnc3[nH]ccc23)CC1 [Capivasertib] + C[C@@H]1COCCN1C2=NC(=NC(=C2)C3(CC3)[S@](=N)(=O)C)C4=C5C=CNC5=NC=C4 [AZD6738] (first compound max 10 µM, 7x7, partner max 10 µM)	0.88	0.803	0.684	0.474	0.58	0.34	0.784	0.581	0.864	0.962	0.867	0.869	0.657	0.928	0.575	0.555	0.616	0.318	0.545	0.651
COc1nnc2ccc(N3CCC(c4ccc(OCCN5CCN(C)C(=O)[C@H]5C)cc4)CC3)nn12 [AZD5153] + CCN(CCO)CCCOc1ccc2c(Nc3cc(CC(=O)Nc4cccc(F)c4)[nH]n3)ncnc2c1 [AZD2811] (first compound max 1 µM, 7x7, partner max 1 µM)	0.711	0.693	0.359	0.652	0.646	0.593	0.553	0.398	0.729	0.616	0.626	0.677	0.458	0.721	0.348	0.529	0.435	0.41	0.597	0.444
CC1(C)CCC(CN2CCN(c3ccc(C(=O)NS(=O)(=O)c4ccc(NCC5CCOCC5)c([N+](=O)[O-])c4)c(Oc4cnc5[nH]ccc5c4)c3)CC2)=C(c2ccc(Cl)cc2)C1 [Venetoclax] + CN(C)CCCOc1ccc(-c2ccc3ncc4c(c3c2)n(C2CCOCC2)c(=O)n4C)cn1 [AZD0156] (first compound max 1 µM, 7x7, partner max 1 µM)	0.256	0.365	0.234	0	0.173	0.44	0.19	0.685	0.34	0.528	0.289	0.195	0.164	0.407	0.306	0.0954	0.134	0.158	0.196	0.562
